Measured values as given in publication doi:10.1101/435867v2 (biorxiv, 2018).

Legend:
[1] = target: T1, GLO1 (Homo sapiens, UniProt Q04760); assay: fluorescence spectroscopy; type: binding
T1 sequence (Q04760 2-184): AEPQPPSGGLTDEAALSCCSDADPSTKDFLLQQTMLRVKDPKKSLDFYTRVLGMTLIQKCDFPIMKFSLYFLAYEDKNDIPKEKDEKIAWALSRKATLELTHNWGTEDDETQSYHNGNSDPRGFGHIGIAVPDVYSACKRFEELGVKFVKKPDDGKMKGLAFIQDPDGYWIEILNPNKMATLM

[2] = target: T2, GLO1 in PC12 cells (Rattus norvegicus, UniProt Q6P7Q4); assay: cellular thermal shift assay; type: cell-based; conditions: half-maximal thermal stabilization
T2 sequence (Q6P7Q4 2-184): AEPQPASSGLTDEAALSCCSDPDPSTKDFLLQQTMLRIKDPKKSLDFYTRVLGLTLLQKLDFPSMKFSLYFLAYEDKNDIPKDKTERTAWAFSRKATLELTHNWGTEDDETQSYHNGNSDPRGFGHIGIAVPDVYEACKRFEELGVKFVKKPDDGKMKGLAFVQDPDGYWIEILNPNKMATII

[3] = target: T1, GLO1; assay: fluorescence spectroscopy; type: binding; conditions: 298 K, 5 μM GLO1

Kd [1]: 47.2 µM | EC50 [2]: 45.2 µM | Ka [3]: 21200 L/mol
Structure (SMILES): O=c1cc(-c2ccc(O)c(O)c2)oc2cc(O)cc(O)c12 [luteolin]
